Source: paper PMC8528301 (PLoS ONE, 2021)
Where two headings read alike, the source gives them in different places.

Key:
[1] = serum
From the text: (§1) To generate VD3 deficient and sufficient mice, day 4–5 estrus (E5-E6) pregnant C57BL/6J female mice from Jackson Laboratories (Bar Harbor, ME) were kept on the VD3 deficient (Harlan catalog no. 5A69, 0 IU of vitamin D) and VD3 sufficient diets, (catalog. No. 5BV8, 3.3 IU of vitamin D) to develop vitamin D deficient and vitamin D sufficient mice, respectively. Pregnant dams were maintained on these diets throughout pregnancy, and after parturition, and pups were maintained on the corresponding diets after weaning as described in [16]. The pups were age matched and both male and female, VD3 deficient and VD3 sufficient mice were used for Cyp3a expression, pharmacokinetic and efficacy studies.
To observe the effect of vitamin D status on hCYP3A4 expression, cryopreserved hCYP3A4 transgenic (tg) mouse sperm was used to re-derive the humanized CYP3A4 transgenic mouse model. Human CYP3A4 transgenic mice were obtained from the laboratory of Dr. Frank Gonzalez (Laboratory of Metabolism, Center for Cancer Research, National Cancer Institute, National Institutes of Health, Bethesda). To generate hCYP3A4-Tg VD3 deficient and sufficient mice, E5-E6 hCYP3A4-Tg pregnant female mice were kept on VD3 deficient and VD3 sufficient diets throughout pregnancy and after parturition as described for C57BL/6J mice above. Pups were maintained on the corresponding diets after weaning and were euthanized at 12 weeks of age for tissue collection, blood was collected by cardiac puncture and serum was isolated and stored at -80°C. Tissues such as intestine (duodenum), liver and kidney were harvested and stored in RNA later at -20°C.
Serum samples from all animals in this manuscript were collected but only a few samples were randomly selected across studies and sent to the Veterinary Diagnostic Laboratory at Michigan State University (Lansing, MI) for serum 25-(OH) VD3 analysis.

[2] = no reference given, cited from earlier work
[3] = tested on: duodenal mCyp3a and drug efflux transporter mRNA expression; test: qPCR of Cyp3a and efflux transporter mRNA in duodenum of VD3 sufficient vs deficient C57BL/6 mice; type: in vivo, mouse; conditions: n=3
From the text: as §1
Mouse intestine (duodenum), liver and kidney tissues stored in RNA later at -20°C were used for RNA isolation. Trizol (Ambion Life technologies, CA, USA or Thermo Fisher scientific, CA, USA) was used to extract RNA according to the manufacturers protocol. Sterile Omni tips (OMNI International, GA, USA) were used to homogenize the tissue using Omni tissue homogenizer. 500 ng of RNA was used to generate cDNA using the Thermoscript™ RT-PCR system (Invitrogen ThermoFisher, CA, USA). The cDNA was diluted to a total volume of 70 μL. Primers used for the amplification: […]
Real-time PCR quantification was performed using SYBR GreenER™ qPCR supermix for ABI PRISM Instrument (Life Technologies, Grand Island, NY) according to manufacturer’s instructions. Samples were run at the following conditions: 95°C for 15 min, 40 cycles of 92°C for 30 sec, 60°C for 30 sec, 68°C for 1 min followed by a dissociation step. The relative amounts of mRNAs in each sample were normalized to Villin or Gapdh for intestine samples or Gapdh values for liver and kidney samples to control for quality of the mRNA. Comparative CT (ΔΔCt) method was used to determine quantitative PCR values.
Fig 1 Cyp and transporter gene expression in duodenum of VD3 sufficient and deficient mice. Influence of VD3 deficiency on duodenal mCyp3a11, mCyp3a13, mCyp3a44 (A,B) and drug efflux transporter mRNA expression (C,D) in 12 wk old C57BL/6 mice (A, C)) and hCYP3A4-tg mice (B,D) (male, n = 3 and female, n = 3/strain). Data are expressed as mean (bars) + SD (error bars) fold change in mRNA expression in deficient mice relative to each mRNAs expression in sufficient mice set as one. Villin was used as an internal control to normalize the target gene expression data. Mann-Whitney nonparametric test on GraphPad was used to determine significance between the groups (**p<0.01, *p<0.05).

[4] = female C57BL/6, VD3 deficient vs sufficient = 1, Villin
[5] = male C57BL/6, VD3 deficient vs sufficient = 1, Villin

## C=C1CC[C@H](O)C/C1=C/C=C1\CCC[C@]2(C)[C@@H]([C@H](C)CCCC(C)(C)O)CC[C@@H]12 [25-(OH) VD3]
[1]; C57BL/6, VD3 Deficient, n=6
  Mean (25-(OH) VD3: 12 nmol/L
[1]; C57BL/6, VD3 Sufficient, n=2
  Mean (25-(OH) VD3: 324.50 nmol/L
[1]; hCYP3A4-tg, VD3 Deficient, n=4
  Mean (25-(OH) VD3: 14.75 nmol/L
[1]; hCYP3A4-tg, VD3 Sufficient, n=4
  Mean (25-(OH) VD3: 219 nmol/L
[2]; serum 25(OH)VD3
  half-life: 15 days

## C=C1CC[C@H](O)C/C1=C/C=C1\CCC[C@]2(C)[C@@H]([C@H](C)CCCC(C)C)CC[C@@H]12 [VD3, Vitamin D3]
[3]; [4]
  avg fold chnge Cyp3a11 mRNA: 0.2614 fold
  avg fold chnge cyp3a13 mRNA: 0.2206 fold
  avg fold chnge cyp3a25 mRNA: 1.068 fold
  avg fold chnge cyp3a44 mRNA: 0.139 fold
[3]; male C57BL/6, VD3 deficient (GCD) vs VD3 sufficient = 1, normalised to Villin
  avg fold change Cyp3a11 mRNA: 0.299 fold
[3]; [5]
  avg fold change Cyp3a13 mRNA: 0.1229 fold
  avg fold change Cyp3a25 mRNA: 0.2366 fold
  avg fold change Cyp3a41 mRNA: 0.2185 fold
  avg fold change Cyp3a44 mRNA: 0.1467 fold
  avg fold change bcrp mRNA: 0.5071 fold
  avg fold change mPXR mRNA: 0.5697 fold
  avg fold change mVDR mRNA: 0.3209 fold
  avg fold change mdr1a mRNA: 0.5457 fold

## C=C1/C(=C\C=C2/CCC[C@]3(C)[C@@H]([C@H](C)CCCC(C)(C)O)CC[C@@H]23)C[C@@H](O)C[C@@H]1O [1,25 (OH)2 VD3]
[2]; serum 1,25 (OH)2 VD3, biologically short lived
  half-life: ~ 15 hours
